# Laboratory results from ChEMBL document CHEMBL1201862, “PubChem BioAssay data set” (2004).
# Activity calls are given as the source filed them.
# Legend:
# [1] = target: T1, Voltage-gated N-type calcium channel alpha-1B subunit/Amyloid beta A4 precursor protein-binding family A member 1 (Homo sapiens, UniProt Q00975+Q02410); assay type: protein assay
# [2] = target: Beta-adrenergic receptor kinase 1 (Homo sapiens, UniProt P25098); assay: aptamer displacement from bead-bound GRK2 – biochemical, cherry pick 1, bead flow cytometry, dose response (AID 504500)
# [3] = target: T2, Apoptotic protease-activating factor 1 (Homo sapiens, UniProt O14727); assay: activation of Apaf-1 mediated apoptosis – fluorescent, uHTS hits, dose response (AID 588554); assay type: functional
# T2 sequence (O14727 whole entry): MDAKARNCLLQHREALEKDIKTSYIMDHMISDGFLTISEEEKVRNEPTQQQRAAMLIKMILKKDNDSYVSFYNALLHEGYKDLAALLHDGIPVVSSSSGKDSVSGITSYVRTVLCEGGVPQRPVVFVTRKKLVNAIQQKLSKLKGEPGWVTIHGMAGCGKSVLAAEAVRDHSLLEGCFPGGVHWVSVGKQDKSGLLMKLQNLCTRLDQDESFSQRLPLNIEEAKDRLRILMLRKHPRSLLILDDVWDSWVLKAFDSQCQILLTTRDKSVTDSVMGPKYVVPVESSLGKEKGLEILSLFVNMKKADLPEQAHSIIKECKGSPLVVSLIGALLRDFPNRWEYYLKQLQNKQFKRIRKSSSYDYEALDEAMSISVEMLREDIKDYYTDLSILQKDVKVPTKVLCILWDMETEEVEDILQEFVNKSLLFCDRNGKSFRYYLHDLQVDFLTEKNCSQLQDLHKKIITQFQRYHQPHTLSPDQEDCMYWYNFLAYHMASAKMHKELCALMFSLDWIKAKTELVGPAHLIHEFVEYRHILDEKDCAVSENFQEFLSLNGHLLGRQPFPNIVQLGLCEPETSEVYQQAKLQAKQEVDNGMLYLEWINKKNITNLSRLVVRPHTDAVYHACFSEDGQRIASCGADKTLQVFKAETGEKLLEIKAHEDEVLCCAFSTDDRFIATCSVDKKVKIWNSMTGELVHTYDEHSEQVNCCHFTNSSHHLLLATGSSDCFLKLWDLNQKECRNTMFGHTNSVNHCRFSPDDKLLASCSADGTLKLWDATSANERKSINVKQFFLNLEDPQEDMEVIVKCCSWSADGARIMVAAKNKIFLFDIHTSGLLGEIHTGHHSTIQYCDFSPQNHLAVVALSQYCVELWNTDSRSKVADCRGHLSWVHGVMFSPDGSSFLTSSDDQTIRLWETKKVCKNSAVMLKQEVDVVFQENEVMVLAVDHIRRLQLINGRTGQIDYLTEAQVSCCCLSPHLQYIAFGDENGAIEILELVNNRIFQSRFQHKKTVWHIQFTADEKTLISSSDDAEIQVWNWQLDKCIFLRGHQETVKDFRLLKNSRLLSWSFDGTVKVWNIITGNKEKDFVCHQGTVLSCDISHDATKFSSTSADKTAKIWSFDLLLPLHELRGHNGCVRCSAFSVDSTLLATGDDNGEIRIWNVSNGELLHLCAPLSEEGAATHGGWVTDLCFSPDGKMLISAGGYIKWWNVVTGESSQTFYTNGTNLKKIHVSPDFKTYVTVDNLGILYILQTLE
# [4] = target: DNA dC->dU-editing enzyme APOBEC-3A (Homo sapiens, UniProt P31941); assay: APOBEC3A DNA deaminase inhibitors, dose response, biochemical (AID 504722); assay type: functional
# [5] = target: DNA dC->dU-editing enzyme APOBEC-3G (Homo sapiens, UniProt Q9HC16); assay: Dose Response confirmation of small molecule APOBEC3G DNA Deaminase Inhibitors via a fluorescence-based single-stranded DNA deaminase assay. [Related pubchem assays (depositor defined):AID493012, AID493028]; assay type: functional
# [6] = target: T1, Voltage-gated N-type calcium channel alpha-1B subunit/Amyloid beta A4 precursor protein-binding family A member 1; assay type: protein assay; remark: listed apart in the source
# [7] = target: T3, Carboxy-terminal domain RNA polymerase II polypeptide A small phosphatase 1 (Homo sapiens, UniProt Q9GZU7); assay: inhibitors of CTDSP1, concentration-response testing, biochemical assay, absorbance-based, actives from ultra-high-throughput screening (AID 540297); assay type: functional
# T3 sequence (Q9GZU7 whole entry): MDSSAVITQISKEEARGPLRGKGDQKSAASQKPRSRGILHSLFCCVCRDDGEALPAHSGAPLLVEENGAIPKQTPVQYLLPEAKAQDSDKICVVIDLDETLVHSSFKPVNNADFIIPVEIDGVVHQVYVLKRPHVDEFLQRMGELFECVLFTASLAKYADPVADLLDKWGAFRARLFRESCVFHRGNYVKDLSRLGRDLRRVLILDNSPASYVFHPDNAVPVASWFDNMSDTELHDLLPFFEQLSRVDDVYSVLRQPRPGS
# [8] = target: T4, Phospholipase D2 (Homo sapiens, UniProt O14939); assay: PLD2 inhibitor potency in cells, dose response (AID 602147); assay type: functional;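 also: cellular assay in HEK293 cells overexpressing GFP-tagged PLD2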
# [9] = target: T5, Phospholipase D1 (Homo sapiens, UniProt Q13393); assay: PLD1 inhibitor potency in cells, dose response (AID 602151); assay type: functional;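 also: cellular PLD1 assay in Calu-1 cells stimulated with PMA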
# [10] = test system: H4; assay: Inhibitors of Prion Protein 5' UTR mRNA Measured in Cell-Based System Using Plate Reader - 2078-01_Inhibitor_Dose_DryPowder_Activity. [Related pubchem assays (depositor defined):AID488894]; assay type: functional; conditions: Homo sapiens
# [11] = target: T5, Phospholipase D1; assay: PLD1 purified enzyme concentration response. [Related pubchem assays (depositor defined):AID588854]; assay type: functional
# [12] = target: T4, Phospholipase D2; assay: PLD2 purified enzyme concentration response. [Related pubchem assays (depositor defined):AID588854]; assay type: functional
# [13] = test system: Jurkat; assay: SAR Analysis of small molecule inhibitors of […] specific antigen receptor-induced NF-kB activation in a Jurkat cell line using a luminescence assay - Set 3. [Related pubchem assays (depositor defined):AID435022, AID435025, AID465]; assay type: functional, cell-based; conditions: Homo sapiens
# [14] = test system: HEK293; assay: cytotoxicity in HEK293T NF-kB-Luc cells, SAR follow-up, cytotoxicity control for NF-kB activator project, cell-based, resazurin fluorescence (AID 493251); assay type: functional; conditions: Homo sapiens
# [15] = test system: HEK293; assay: SAR Analysis of small molecule inhibitors of B-cell specific antigen receptor-induced NF-kB activation in a HEK-293T cell line using a luminescence assay - Set 2. [Related pubchem assays (depositor defined):AID435022, AID435025, AID489021]; assay type: functional, cell-based; conditions: Homo sapiens
# [16] = target: CAAX prenyl protease 2 (Homo sapiens, UniProt Q9Y256); assay: human Rce1 protease inhibitors, dose response, biochemical, yeast membranes, quenched-peptide fluorescence, cherry-pick (AID 588849)
# [17] = target: Trypsin (Sus scrofa, UniProt P00761); assay: porcine trypsin inhibitors, dose response, selectivity assay for Rce1 protease inhibitor project, biochemical, quenched peptide fluorescence, cherry-pick (AID 488789)
# [18] = target: Genome polyprotein (dengue virus type 2, UniProt P29990); assay: Dengue-2 NS5 methyltransferase inhibitors, primary screen, biochemical, confirmation dose response (AID 588689); assay type: functional
# [19] = target: Glucose-6-phosphate 1-dehydrogenase (Homo sapiens, UniProt P11413); assay: human G6PD enzyme inhibitors, dose response, selectivity assay for P. falciparum G6PD inhibitor project, biochemical, fluorescence (AID 504792); assay type: functional
# [20] = target: Albumin (Bos taurus, UniProt P02769); assay: Counterscreen for inhibitors of T-cell receptor (TCR)-CD3 interaction: Fluorescence-based biochemical high throughput dose response assay to identify inhibitors of T-cell receptor (TCR)-CD3 interaction using a TAMRA-labeled BSA probe.; assay type: functional
# [21] = target: T6, Tyrosyl-DNA phosphodiesterase 2 (Homo sapiens, UniProt O95551); assay: human TDP2 enzyme inhibitors, dose response, biochemical, epi absorbance, IC50 (AID 743297)
# T6 sequence (O95551 whole entry): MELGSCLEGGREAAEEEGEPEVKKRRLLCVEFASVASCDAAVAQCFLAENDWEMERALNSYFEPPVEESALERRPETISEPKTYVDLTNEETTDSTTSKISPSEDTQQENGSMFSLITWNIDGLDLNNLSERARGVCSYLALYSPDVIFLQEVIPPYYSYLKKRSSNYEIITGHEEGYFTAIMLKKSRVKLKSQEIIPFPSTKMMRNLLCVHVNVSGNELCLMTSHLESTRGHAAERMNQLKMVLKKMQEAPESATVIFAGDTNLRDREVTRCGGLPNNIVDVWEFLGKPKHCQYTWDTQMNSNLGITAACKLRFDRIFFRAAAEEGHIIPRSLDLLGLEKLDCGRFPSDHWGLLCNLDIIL
# [22] = CFTR ΔF508 corrector activity in bronchial cells, dose response, human bronchial epithelial cells, plate reader, cherry-pick, two tests (AID 743267); assay type: functional, cell-based
# [23] = test system: Vero; assay: Vero cell cytotoxicity, cytotoxicity control for flavivirus capping enzyme inhibitors (AID 588742); assay type: functional; conditions: Chlorocebus sabaeus
# [24] = target: T7, Hexokinase HKDC1 (Homo sapiens, UniProt Q2TB90); assay: HKDC1 hexokinase inhibitors, SAR follow-up, biochemical, set 2 (AID 588355); assay type: functional
# T7 sequence (Q2TB90 whole entry): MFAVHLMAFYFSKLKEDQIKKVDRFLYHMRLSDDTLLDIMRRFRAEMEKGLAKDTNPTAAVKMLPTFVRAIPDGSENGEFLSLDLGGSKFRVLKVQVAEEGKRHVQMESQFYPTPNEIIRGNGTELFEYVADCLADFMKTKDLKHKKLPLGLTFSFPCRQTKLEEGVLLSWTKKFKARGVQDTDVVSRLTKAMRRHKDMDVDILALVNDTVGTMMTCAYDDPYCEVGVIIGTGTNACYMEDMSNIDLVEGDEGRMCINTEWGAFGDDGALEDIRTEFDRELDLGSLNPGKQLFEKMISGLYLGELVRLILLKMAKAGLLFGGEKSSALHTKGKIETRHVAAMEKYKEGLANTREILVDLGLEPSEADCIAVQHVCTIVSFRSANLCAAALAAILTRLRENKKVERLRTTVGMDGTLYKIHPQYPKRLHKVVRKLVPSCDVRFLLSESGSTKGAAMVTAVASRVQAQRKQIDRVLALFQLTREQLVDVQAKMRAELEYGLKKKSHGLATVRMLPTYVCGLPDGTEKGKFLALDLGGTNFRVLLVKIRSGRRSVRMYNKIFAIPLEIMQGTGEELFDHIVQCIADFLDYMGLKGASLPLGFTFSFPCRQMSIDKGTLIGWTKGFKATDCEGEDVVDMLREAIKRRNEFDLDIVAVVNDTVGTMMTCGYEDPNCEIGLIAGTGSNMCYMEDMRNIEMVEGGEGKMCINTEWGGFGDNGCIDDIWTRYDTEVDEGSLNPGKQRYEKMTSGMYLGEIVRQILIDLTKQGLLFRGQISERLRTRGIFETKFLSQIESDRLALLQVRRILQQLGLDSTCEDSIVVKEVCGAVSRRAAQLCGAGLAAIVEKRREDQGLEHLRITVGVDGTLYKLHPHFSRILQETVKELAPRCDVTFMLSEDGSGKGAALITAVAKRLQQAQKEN
# [25] = target: Hexokinase-1 (Homo sapiens, UniProt P19367); assay: HK1 enzyme inhibition by HKDC1 hits, SAR follow-up, selectivity assay for HKDC1 inhibitor project, biochemical, set 2, resazurin fluorescence coupled readout (AID 588356); assay type: functional
# [26] = test system: Candida albicans; assay: growth inhibition of resistant C. albicans, dose response, CaCi-8 strain, fluconazole, dry powder, set 4 (AID 488950); assay type: functional, organism-based
# [27] = test system: Candida albicans; assay: growth inhibition of azole-resistant C. albicans, dose response, CaCi-8 strain, Alamar Blue, dry powder, set 2 (AID 488909); assay type: functional, organism-based
# T1 sequence (Q00975 whole entry): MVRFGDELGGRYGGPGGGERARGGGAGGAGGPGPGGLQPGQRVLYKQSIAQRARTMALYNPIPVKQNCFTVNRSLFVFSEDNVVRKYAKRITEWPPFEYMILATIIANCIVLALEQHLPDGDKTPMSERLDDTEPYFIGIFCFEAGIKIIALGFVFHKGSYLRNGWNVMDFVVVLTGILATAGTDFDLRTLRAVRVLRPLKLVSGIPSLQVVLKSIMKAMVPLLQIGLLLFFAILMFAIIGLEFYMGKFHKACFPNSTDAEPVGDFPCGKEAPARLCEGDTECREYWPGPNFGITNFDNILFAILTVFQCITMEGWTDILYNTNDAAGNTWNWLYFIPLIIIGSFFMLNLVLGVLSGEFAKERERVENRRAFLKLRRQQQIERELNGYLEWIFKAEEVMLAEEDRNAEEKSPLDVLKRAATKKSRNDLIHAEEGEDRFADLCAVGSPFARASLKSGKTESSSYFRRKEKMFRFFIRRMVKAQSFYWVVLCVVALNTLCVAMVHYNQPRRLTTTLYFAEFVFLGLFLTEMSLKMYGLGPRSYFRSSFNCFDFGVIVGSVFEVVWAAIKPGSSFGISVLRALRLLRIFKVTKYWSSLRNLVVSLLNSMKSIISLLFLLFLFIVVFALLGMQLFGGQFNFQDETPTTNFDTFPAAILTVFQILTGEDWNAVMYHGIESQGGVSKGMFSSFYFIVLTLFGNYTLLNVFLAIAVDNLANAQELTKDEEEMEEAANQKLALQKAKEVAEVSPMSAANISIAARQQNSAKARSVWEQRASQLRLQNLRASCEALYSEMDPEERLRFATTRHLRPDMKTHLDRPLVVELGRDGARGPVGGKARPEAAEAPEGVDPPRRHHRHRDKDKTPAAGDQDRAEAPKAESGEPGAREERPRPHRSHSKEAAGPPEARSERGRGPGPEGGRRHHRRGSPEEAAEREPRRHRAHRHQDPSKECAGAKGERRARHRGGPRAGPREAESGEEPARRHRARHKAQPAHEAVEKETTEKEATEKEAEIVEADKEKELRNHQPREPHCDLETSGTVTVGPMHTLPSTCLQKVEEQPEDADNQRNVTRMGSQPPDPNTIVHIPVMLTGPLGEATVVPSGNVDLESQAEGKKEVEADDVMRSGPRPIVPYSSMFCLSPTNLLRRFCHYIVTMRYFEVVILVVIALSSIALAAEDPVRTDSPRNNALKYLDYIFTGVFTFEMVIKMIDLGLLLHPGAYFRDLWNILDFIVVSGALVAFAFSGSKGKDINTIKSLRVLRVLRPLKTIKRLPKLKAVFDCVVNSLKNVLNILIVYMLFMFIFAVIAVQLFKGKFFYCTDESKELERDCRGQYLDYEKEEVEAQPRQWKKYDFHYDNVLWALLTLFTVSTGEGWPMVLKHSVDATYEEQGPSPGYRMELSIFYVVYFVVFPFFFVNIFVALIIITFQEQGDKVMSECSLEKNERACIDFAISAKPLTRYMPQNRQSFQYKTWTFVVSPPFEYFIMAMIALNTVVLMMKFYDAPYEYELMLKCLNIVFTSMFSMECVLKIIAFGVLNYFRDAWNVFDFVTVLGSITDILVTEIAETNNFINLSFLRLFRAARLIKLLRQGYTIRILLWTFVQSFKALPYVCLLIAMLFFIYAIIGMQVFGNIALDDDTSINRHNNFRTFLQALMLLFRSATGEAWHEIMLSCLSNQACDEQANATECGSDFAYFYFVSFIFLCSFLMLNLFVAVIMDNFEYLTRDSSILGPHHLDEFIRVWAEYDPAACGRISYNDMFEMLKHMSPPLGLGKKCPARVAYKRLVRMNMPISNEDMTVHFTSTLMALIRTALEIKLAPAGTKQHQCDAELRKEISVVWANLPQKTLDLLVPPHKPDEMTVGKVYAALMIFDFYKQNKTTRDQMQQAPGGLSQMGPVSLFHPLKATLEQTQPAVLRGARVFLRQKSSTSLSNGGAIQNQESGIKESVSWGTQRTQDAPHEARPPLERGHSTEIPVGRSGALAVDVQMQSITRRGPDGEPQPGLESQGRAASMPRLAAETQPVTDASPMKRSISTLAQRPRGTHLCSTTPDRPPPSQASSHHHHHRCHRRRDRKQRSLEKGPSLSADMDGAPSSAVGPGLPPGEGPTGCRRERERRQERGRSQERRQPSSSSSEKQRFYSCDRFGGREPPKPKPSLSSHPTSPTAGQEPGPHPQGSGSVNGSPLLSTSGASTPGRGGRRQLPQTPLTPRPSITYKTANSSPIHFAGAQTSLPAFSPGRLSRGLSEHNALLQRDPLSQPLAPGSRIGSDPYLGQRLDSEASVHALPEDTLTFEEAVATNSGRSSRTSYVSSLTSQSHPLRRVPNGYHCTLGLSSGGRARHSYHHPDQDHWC
# T1 sequence (Q02410 whole entry): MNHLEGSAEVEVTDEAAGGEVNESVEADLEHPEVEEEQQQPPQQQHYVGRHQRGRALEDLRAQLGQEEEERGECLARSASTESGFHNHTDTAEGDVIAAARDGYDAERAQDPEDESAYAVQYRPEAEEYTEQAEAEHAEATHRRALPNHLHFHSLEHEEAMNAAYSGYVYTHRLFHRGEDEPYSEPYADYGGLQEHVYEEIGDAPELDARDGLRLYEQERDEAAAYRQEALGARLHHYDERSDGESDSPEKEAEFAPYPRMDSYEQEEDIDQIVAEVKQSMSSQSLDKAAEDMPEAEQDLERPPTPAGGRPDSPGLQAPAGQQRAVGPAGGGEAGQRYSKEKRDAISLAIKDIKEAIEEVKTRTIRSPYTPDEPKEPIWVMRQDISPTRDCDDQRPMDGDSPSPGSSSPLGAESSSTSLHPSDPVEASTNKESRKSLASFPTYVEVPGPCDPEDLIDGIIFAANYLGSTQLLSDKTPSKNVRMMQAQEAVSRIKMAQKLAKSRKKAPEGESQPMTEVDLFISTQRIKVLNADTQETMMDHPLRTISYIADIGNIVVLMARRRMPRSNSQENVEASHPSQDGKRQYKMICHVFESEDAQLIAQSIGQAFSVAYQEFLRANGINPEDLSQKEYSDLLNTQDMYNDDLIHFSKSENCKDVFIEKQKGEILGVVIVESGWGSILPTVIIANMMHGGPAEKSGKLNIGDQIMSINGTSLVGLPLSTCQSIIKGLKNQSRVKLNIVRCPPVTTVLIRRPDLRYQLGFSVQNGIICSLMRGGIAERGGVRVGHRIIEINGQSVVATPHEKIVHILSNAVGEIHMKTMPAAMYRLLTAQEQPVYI
# T4 sequence (O14939 whole entry): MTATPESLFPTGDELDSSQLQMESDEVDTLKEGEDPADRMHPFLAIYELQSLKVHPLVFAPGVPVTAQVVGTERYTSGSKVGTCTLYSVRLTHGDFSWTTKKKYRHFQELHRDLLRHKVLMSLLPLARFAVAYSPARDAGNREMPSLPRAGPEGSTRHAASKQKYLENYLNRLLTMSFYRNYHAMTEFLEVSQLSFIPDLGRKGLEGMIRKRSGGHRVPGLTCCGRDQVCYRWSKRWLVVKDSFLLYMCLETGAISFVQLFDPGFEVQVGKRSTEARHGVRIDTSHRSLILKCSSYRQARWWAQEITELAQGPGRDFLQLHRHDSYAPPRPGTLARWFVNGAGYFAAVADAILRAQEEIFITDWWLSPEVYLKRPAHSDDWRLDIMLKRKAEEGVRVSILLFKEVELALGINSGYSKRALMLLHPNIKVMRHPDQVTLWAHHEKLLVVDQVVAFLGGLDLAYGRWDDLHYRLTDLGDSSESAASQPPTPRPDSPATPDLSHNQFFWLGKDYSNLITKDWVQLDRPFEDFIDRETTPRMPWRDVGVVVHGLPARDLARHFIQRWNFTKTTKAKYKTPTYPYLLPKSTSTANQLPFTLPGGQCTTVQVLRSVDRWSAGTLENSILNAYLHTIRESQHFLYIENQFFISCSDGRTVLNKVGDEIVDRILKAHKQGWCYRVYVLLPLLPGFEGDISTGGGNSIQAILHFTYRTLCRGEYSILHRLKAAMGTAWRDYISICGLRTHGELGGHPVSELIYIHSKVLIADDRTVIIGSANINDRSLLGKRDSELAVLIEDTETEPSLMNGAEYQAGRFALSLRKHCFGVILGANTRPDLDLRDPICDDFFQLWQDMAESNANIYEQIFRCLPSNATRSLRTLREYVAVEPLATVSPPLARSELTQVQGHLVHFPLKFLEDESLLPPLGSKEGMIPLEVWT
# Sequence of Genome polyprotein (P29990 2492-3391 limits assumed): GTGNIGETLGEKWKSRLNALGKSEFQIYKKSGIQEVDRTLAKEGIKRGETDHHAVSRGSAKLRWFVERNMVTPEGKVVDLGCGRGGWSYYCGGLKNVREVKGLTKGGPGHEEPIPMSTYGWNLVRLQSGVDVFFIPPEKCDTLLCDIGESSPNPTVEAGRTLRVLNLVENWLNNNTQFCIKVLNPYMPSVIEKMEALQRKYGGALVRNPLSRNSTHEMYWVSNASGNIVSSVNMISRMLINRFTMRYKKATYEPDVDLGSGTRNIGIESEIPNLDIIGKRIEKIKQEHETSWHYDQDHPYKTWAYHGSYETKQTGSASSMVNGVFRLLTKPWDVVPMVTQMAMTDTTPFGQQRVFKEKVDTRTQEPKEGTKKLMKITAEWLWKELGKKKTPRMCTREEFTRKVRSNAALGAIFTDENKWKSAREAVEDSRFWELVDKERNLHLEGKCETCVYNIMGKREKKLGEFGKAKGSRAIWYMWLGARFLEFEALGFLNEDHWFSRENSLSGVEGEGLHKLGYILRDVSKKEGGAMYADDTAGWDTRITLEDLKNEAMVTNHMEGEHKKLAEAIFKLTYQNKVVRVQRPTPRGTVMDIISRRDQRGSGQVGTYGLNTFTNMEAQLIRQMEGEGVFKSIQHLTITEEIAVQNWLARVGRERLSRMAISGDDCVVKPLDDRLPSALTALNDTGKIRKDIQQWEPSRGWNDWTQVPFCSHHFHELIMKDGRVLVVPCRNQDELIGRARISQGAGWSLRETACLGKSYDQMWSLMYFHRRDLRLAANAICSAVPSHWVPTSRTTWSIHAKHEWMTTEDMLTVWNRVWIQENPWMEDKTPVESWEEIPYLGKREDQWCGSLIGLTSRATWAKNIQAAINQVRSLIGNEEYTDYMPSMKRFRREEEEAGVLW
smiles,measurement,setting,value
C=C(C)C(=O)Nc1cccc(C2=NOC3(C2)C[C@@H](C(N)=O)N(C(=O)CCCCC)C3)c1 (some centres not stated),IC50,[1],> 50 µM (inactive)
same,EC50,[2],0.11 µM (active)
same,EC50,[3],2.96 µM (active)
same,IC50,[4],> 100 µM (inactive)
same,IC50,[5],2.82 µM (active)
same,IC50,[6],10.2 µM (active)
same,IC50,[7],0.9 µM (active)
C[C@@H](CN1CCC2(CC1)C(=O)NCN2c1ccc(F)c(F)c1)NC(=O)c1cc2cc(F)ccc2[nH]1,IC50,[8],0.032 µM (active)
same,IC50,[9],0.005 µM (active)
COc1ccc(NC=C2C(=O)c3ccccc3C2=O)c(OC)c1,AC50,[10],1.75 µM (active)
O=C(NCCN1CCC2(CC1)C(=O)NCN2c1ccc(Br)cc1)c1cc2cc(F)ccc2[nH]1,IC50,[11],5 µM (active)
same,IC50,[12],0.028 µM (active)
CCOc1ccc(-c2nc(CSCC(=O)NC3CCCC3)c(C)o2)cc1,IC50,[13],37.6 µM (inactive)
same,IC50,[14],64.2 µM (inactive)
same,IC50,[15],26.4 µM (inactive)
Cc1ccnc(SCc2cn3c(C)cc(C)nc3n2)n1,AC50,[16],> 100 µM (inactive)
same,AC50,[17],20.2 µM (active)
O=C1C(=NCCc2cc(Br)c(O)c(Br)c2)C=C(O)c2cccnc21,IC50,[18],12.2 µM (active)
same,IC50,[19],25.2 µM (inactive)
same,IC50,[20],> 94.2 µM (inactive)
same,IC50,[21],5.04 µM (active)
same,AC50,[22],3.33 µM (active)
same,CC50,[23],2.03 µM (active)
CC(=O)NC1C(=O)N(CCN2CCOCC2)c2ccccc21 (configuration not stated),IC50,[24],> 80 µM (inactive)
same,IC50,[25],> 80 µM (inactive)
CCCC(=O)N1CCN(c2ccnc3cc(Cl)ccc23)CC1,AC50,[26],16.9 µM (active)
same,AC50,[27],5.59 µM (active)
